Assay results taken from PMC6443962, “Anti-nociceptive and Anti-inflammatory Activities of Asparacosin A Involve Selective Cyclooxygenase 2 and Inflammatory Cytokines Inhibition: An in-vitro, in-vivo, and in-silico Approach” (Frontiers in Immunology, 2019).
pIC50: −log10 of the molar value.

Legend:
[1] = biological target: T1, COX-1 (cyclooxygenase 1, ovine) (Ovis aries, UniProt P05979); assay: colorimetric COX inhibitor screening assay (Cayman kit […]); type: biochemical
T1 construct: gene PTGS1
T1 sequence (P05979 25-600): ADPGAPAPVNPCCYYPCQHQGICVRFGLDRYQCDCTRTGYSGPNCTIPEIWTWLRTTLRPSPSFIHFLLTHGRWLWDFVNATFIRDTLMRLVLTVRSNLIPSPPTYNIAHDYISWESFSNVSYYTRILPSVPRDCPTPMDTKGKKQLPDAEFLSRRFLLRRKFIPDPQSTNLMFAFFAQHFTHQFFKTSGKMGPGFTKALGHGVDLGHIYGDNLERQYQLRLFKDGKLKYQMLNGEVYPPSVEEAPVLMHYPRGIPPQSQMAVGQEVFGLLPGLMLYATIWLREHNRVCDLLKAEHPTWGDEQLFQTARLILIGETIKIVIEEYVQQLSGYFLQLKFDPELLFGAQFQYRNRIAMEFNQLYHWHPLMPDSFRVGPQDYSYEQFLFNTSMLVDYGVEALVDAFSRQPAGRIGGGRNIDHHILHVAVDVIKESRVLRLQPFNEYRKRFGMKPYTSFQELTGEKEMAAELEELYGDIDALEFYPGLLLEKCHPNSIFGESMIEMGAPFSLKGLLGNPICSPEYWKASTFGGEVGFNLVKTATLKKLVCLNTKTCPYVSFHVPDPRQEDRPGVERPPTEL

[2] = biological target: T2, COX-2 (cyclooxygenase 2, human recombinant) (Homo sapiens, UniProt P35354); assay: as above; type: biochemical
T2 construct: gene PTGS2
T2 sequence (P35354 18-604): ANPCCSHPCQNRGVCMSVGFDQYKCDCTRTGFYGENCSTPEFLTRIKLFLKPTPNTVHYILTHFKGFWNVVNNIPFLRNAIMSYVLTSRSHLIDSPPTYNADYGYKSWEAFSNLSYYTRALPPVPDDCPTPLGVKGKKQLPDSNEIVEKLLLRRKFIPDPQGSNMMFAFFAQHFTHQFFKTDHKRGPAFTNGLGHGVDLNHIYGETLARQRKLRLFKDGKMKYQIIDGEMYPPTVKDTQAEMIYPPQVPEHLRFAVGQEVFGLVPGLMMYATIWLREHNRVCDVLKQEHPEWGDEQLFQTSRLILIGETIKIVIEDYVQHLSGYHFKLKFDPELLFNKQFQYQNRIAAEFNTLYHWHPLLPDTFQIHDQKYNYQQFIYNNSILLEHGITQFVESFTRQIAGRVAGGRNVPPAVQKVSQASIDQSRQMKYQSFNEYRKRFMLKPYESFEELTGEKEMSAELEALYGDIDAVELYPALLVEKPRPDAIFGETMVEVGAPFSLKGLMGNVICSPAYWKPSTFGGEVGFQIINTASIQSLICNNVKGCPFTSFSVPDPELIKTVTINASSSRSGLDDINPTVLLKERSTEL

SMILES: C[C@@H]1CC[C@@]2(OC1)O[C@H]1C[C@H]3[C@@H]4CCC5=CC(=O)CC[C@]5(C)[C@H]4C[C@@H](O)[C@]3(C)[C@@]1(O)[C@@H]2C [Asparacosin A]
- pIC50 [1]: 4.62
- IC50 [2]: 0.6 µM
